Results as given in patent US20230414626A1, “INDUCTION OF FERROPTOSIS FOR CANCER THERAPY” (Memorial Sloan Kettering Cancer Center, priority 2020, published 2023).

These molecules were tested on SREBF1-knockout cells (assay: Cell death in SREBF1-knockout cells). Settings: SREBF1-knockout MDA-MB-453 and BT474 cells; Torin 1 μM; GDC-0941 2 μM; MK-2206 2 μM; CCI-779 0.5 μM.
Format: cell-based, human
Protocol: FIG. 9 A-F. SREBP1 protects cells from ferroptosis. (A) MCF7 cells were treated as indicated. RSL3, 5 μM; CCI-779, 0.5 μM. Cell lysates were collected 24 h after treatment for Western blot detecting […], total S6K, SREBP1(P) and SREBP1(m). (B) Cells were pretreated with 5 μM Fatostatin A overnight and treated as indicated. RSL3, 0.5 μM for BT474 cells, 1 μM for MDA-MB-453 and 5 μM for MCF7 cells; Fer-1, 1 μM. (C) Efficiency of SREBF1 Knockout in BT474, MDA-MB-453, and MCF7 cells was monitored by western blot. (D) MCF7 cells were treated as indicated. RSL3, 5 μM; Fer-1, 1 μM. (E) Cells were treated as indicated. RSL3, 1 μM for MDA-MB-453 cells and 0.5 μM for BT474 cells; Fer-1, 1 μM; Torin, 1 μM; GDC-0941, 2 μM; MK-2206, 2 μM; CCI-779, 0.5 μM. (F) SREBP1m was overexpressed in MCF7, MDA-MB-453 and A549 cells and determined by western blot. Cells were treated as indicated. RSL3, 5 μM for MCF7 cells, 0.5 μM for MDA-MB-453 cells and 0.25 μM for A549 cells; CCI-779, 0.5 μM.
Cells were seeded in plates at appropriate cell density and incubated overnight at 37° C. containing 5% C02, and then subjected to treatments as described in individual experiments. Cells were stained with hoechst 33342 (0.1 μg/ml) to monitor total cell number, and with Sytox Green (5 nM) to monitor cell death. Culture plates were read by Cytation 5 at indicated time points. Percentage of cell death was calculated as Sytox Green-positive cell number over total cell number. For 3D spheroids, cell viability was determined a commercially available cell viability assay (Promega, Madison, WI, USA) following the manufacturer's instructions. Viability was calculated by normalizing ATP levels of samples to that of negative controls (spheroids in normal full media without treatment).
Keap1, NRF2 and SREBP1 depleted cells were generated with a CRISPR/Cas9-mediated knockout system. sgRNA sequences were cloned into LentiCRISPRV2. SCD1 depleted cells were generated with CRISPR/Cas9 mediated knockout system, using stable Cas9 expression cells and sanger CRISPR clone. […]

SMILES	further enhancement of RSL3-induced ferroptosis
CO[C@H]1C[C@@H]2CC[C@@H](C)[C@@](O)(O2)C(=O)C(=O)N2CCCC[C@H]2C(=O)O[C@H]([C@H](C)C[C@@H]2CC[C@@H](OC(=O)C(C)(CO)CO)[C@H](OC)C2)CC(=O)[C@H](C)/C=C(\C)[C@@H](O)[C@@H](OC)C(=O)[C@H](C)C[C@H](C)/C=C/C=C/C=C/1C [CCI-779, Temsirolimus]	failed to further enhance RSL3-induced ferroptosis
CS(=O)(=O)N1CCN(Cc2cc3nc(-c4cccc5[nH]ncc45)nc(N4CCOCC4)c3s2)CC1 [GDC-0941]	failed to further enhance RSL3-induced ferroptosis
NC1(c2ccc(-c3nc4ccn5c(=O)[nH]nc5c4cc3-c3ccccc3)cc2)CCC1 [MK-2206]	failed to further enhance RSL3-induced ferroptosis
CCC(=O)N1CCN(c2ccc(-n3c(=O)ccc4cnc5ccc(-c6cnc7ccccc7c6)cc5c43)cc2C(F)(F)F)CC1 [Torin]	failed to further enhance RSL3-induced ferroptosis
